Reference: PubChem BioAssay (NCI)
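Five concentrations, 48 hours, 96-well plates. GI50 = concentration required for 50% inhibition of growth. The concentration for full growth arrest is given as TGI.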

How the values were obtained:
Assay in all cases: NCI-60 cell line screen, 48 h
[1] = test system: CCRF-CEM leukemia
[2] = test system: HCT-116 colon
[3] = test system: KM12 colon
[4] = test system: NCI-H460 lung
[5] = test system: OVCAR-5 ovarian
[6] = test system: SK-OV-3 ovarian
[7] = test system: T-47D breast
[8] = test system: TK-10 renal
[9] = test system: MCF7 breast
[10] = test system: SF-539 CNS

Structure (SMILES)	TGI [1]	TGI [2]	TGI [3]	TGI [4]	TGI [5]	TGI [6]	TGI [7]	TGI [8]	TGI [9]	TGI [10]	GI50 [1]	GI50 [2]	GI50 [3]	GI50 [5]	GI50 [10]	GI50 [6]	GI50 [7]	GI50 [8]	GI50 [9]
CC(=O)O[C@H]1C[C@@H](OC(C)=O)[C@@](C)(O)[C@@H]2[C@@H](OC(C)=O)[C@@]3(O)[C@H](/C=C(/CCl)[C@H]4O[C@H]4[C@@H](OC(C)=O)[C@@]12C)OC(=O)[C@@H]3C	> 25 µM	> 25 µM	> 25 µM	> 25 µM	> 25 µM	> 25 µM	> 25 µM	> 25 µM											
CON(C)C(=O)C(C)NC(=O)OC(C)(C)C (centres undefined)	> 100 µM	> 100 µM	> 100 µM	> 100 µM	> 100 µM	> 100 µM	> 100 µM	> 100 µM	> 100 µM	> 100 µM									
CCN(CC)C(=S)SSCCO	45.2 µM	27.7 µM	30.1 µM		31.5 µM	> 100 µM	34.2 µM	40.8 µM		29.1 µM	14.5 µM	14.6 µM	15 µM	17.7 µM	15.7 µM	73.9 µM	15.4 µM	24 µM	
FC(F)(F)c1cnc(N/N=C(/c2ccccc2)c2ccccn2)c(Cl)c1	17.6 µM	12.1 µM	26.3 µM	10.5 µM	31.5 µM	17.9 µM			6.7 µM	14.4 µM									
Nc1c(C(=O)c2ccccc2)nnc2ccccc12		71.6 µM	67.7 µM	67.1 µM	> 100 µM			54.7 µM	62.6 µM	87.3 µM									
CC(=O)O[C@H]1C[C@H]2[C@@H]([C@H](OC(C)=O)C[C@@H]3CC4(CC[C@@]32C)OOC2(CCCCC2)OO4)[C@@H]2CC[C@H]([C@H](C)CCC(=O)O)[C@@]12C	15.5 µM	19.2 µM	17.1 µM	21.6 µM	29.8 µM	26.9 µM	45.7 µM	27 µM	22.1 µM	20.3 µM									
Cc1cc(OC(=O)Nc2ccc(Cl)cc2)ccc1C(=S)Nc1ccccc1	58 µM	> 100 µM	> 100 µM	> 100 µM	> 100 µM	> 100 µM	> 100 µM		> 100 µM	> 100 µM									
CSc1nc(C)cc(=O)n1C1OC(COC(C)=O)C(OC(C)=O)C(OC(C)=O)C1OC(C)=O (centres undefined)	> 100 µM	> 100 µM	> 100 µM	> 100 µM	> 100 µM	> 100 µM		> 100 µM											
C=C1C(=O)O[C@@H]2[C@H]1C[C@H](I)[C@@]1(C)CC[C@H](O1)[C@](C)(I)CCCC(C)[C@@H]2O (some centres undefined)	1.59 µM	8.34 µM	23.7 µM	28.6 µM	26.5 µM	30.7 µM	12.7 µM	3.57 µM	7.29 µM	4.25 µM									
Brc1ccc(-c2nc(-c3ccc(Br)cc3)n(-c3ccccc3)n2)cc1	> 100 µM	> 100 µM	> 100 µM	> 100 µM	> 100 µM	> 100 µM	> 100 µM	> 100 µM	> 100 µM	> 100 µM									
CC(C)CCCC(C)[C@H]1CCC2[C@@H]3CCC4Cc5nc6c(nc5C[C@]4(C)C3CC[C@@]21C)CC1CC[C@@H]2C(CC[C@@]3(C)C2CC[C@@H]3O)[C@@]1(C)C6 (some centres undefined)	> 100 µM	> 100 µM	> 100 µM	> 100 µM	> 100 µM	> 100 µM	> 100 µM	> 100 µM	> 100 µM	> 100 µM									
CCN(CC)Cc1ccc(Nc2c3ccccc3nc3ccccc23)cc1	8.28 µM	6.99 µM	13.1 µM	3.05 µM	5.46 µM	5.56 µM	16.7 µM	18.8 µM	4.36 µM	3.45 µM									
Cn1cnnc1SC(F)(F)c1nc2ccccc2o1	> 100 µM	> 100 µM	> 100 µM	> 100 µM	> 100 µM	> 100 µM	> 100 µM	> 100 µM	> 100 µM	> 100 µM									
CC(=O)c1sc2c(c1O)c(=O)n(-c1ccccc1)c(=S)n2-c1ccccc1			> 100 µM	> 100 µM	> 100 µM		> 100 µM	> 100 µM	> 100 µM										
C=CC1(O)CCCC=C1COCc1ccccc1 (centres undefined)	> 100 µM	> 100 µM	> 100 µM	> 100 µM	> 100 µM	> 100 µM	> 100 µM	> 100 µM	> 100 µM										
COc1cc(S(=O)(=O)Nc2ccc(-c3csc(/N=C\c4cccs4)n3)cc2)ccc1Cl	80.3 µM	> 100 µM		> 100 µM	> 100 µM	> 100 µM	62.8 µM	> 100 µM	48.5 µM	> 100 µM									
COC1(c2ccccc2)NC(=S)NN=C1c1ccccc1 (centres undefined)	> 100 µM	> 100 µM	> 100 µM	71.6 µM	> 100 µM	78.4 µM	> 100 µM	> 100 µM	> 100 µM										
O=C(/C=C/c1cccs1)c1ccc([N+](=O)[O-])cc1	> 100 µM	> 100 µM	> 100 µM	> 100 µM		> 100 µM	> 100 µM	> 100 µM	> 100 µM	> 100 µM									
CC(=O)N1c2ccccc2[C@H]2CCc3c([nH]c4ccccc34)[C@H]21	40.2 µM	11.4 µM	39.5 µM	23.3 µM	> 100 µM	> 100 µM	96.9 µM	> 100 µM		26.1 µM									
Cc1cc2c3c(c1)CCCN3CCC2	> 10 µM	> 10 µM	> 10 µM	> 10 µM		> 10 µM	> 10 µM	> 10 µM	> 10 µM	> 10 µM									
N=C(N)c1ccc(N=Nc2c(O)ccc3cc(O)ccc23)cc1	> 100 µM	> 100 µM	> 100 µM	> 100 µM	> 100 µM	> 100 µM		> 100 µM	> 100 µM	> 100 µM									
CC(=O)OC1CC[C@@]2(C)C(=CC[C@@H]3[C@@H]2CC[C@]2(C)C(OC(C)=O)[C@H](n4ccnc4)C[C@@H]32)C1 (some centres undefined)	37.1 µM	31.2 µM	30.4 µM	33.4 µM	> 100 µM			> 100 µM	33.2 µM	29.8 µM									
COc1cccc(-c2[nH]c3cc4c(cc3c(=O)c2C(=O)O)OCO4)c1	> 100 µM	> 100 µM	> 100 µM	> 100 µM	> 100 µM		> 100 µM		> 100 µM	69.4 µM									

Structure (SMILES)	TGI [1]	TGI [2]	TGI [3]	TGI [4]	TGI [5]	TGI [6]	TGI [7]	TGI [8]	TGI [9]	TGI [10]	GI50 [1]	GI50 [2]	GI50 [3]	GI50 [5]	GI50 [10]	GI50 [6]	GI50 [7]	GI50 [8]	GI50 [9]
NC(N)=N/N=C\c1c(-c2ccccc2)nc2sccn12	73.3 µM	28.5 µM	27.5 µM	29.7 µM	30.6 µM	33.2 µM	29.1 µM	31.2 µM		30.2 µM									
Cn1c(=O)n2n(c1=O)C(S(=O)c1ccccc1)C2 (centres undefined)	> 100 µM	> 100 µM	> 100 µM	> 100 µM	> 100 µM	> 100 µM		> 100 µM	> 100 µM	> 100 µM									
COc1ccc(/C=N/n2c(Cc3ccccc3)n[nH]c2=O)cc1	> 100 µM	> 100 µM	> 100 µM	> 100 µM	> 100 µM	> 100 µM	> 100 µM		> 100 µM	> 100 µM									
C/C(=N\Nc1nc2ccccc2n1C)c1ccc2ccccc2n1	1.67 µM	7.03 µM	43.5 µM	32.1 µM	11 µM	> 100 µM		34 µM	27.4 µM	> 34.3 µM									
O[C@]12c3ccccc3C1CCCCC2N1CCOCC1 (some centres undefined)	> 100 µM	> 100 µM	> 100 µM	> 100 µM		> 100 µM		> 100 µM											
O=C([O-])C1([n+]2c(-c3ccccc3)cc(-c3ccccc3)cc2-c2ccccc2)CC1	> 100 µM	> 100 µM		> 100 µM	> 100 µM		45.2 µM	> 100 µM	> 100 µM	> 100 µM									
O=S(=O)(/N=C(\NO)Nc1ccc(Cl)cc1)c1cc(S(=O)(=O)c2ccccc2)cs1	43.5 µM	26.4 µM	64.7 µM	40.7 µM	42.5 µM		44.3 µM	45.4 µM	35.9 µM	32.4 µM									
CC(C)(CC1(C)NC(=O)NC1=O)OCc1ccccc1 (centres undefined)		> 100 µM	> 100 µM	> 100 µM	> 100 µM	> 100 µM	> 100 µM	> 100 µM	> 100 µM										
Nc1ncc(Sc2ccccc2C(=O)O)s1	> 100 µM	> 100 µM	> 100 µM	> 100 µM	> 100 µM		> 100 µM	> 100 µM	> 100 µM	> 100 µM									
COc1cccc(/C=N/[N-]C(N)=O)c1[O-].[OH3+].[Pd+2]	> 100 µM	> 100 µM	> 100 µM	> 100 µM	> 100 µM	> 100 µM		> 100 µM		> 100 µM									
O=C(O)c1ccccc1CC(Cc1ccccc1)C(=O)O (centres undefined)	> 100 µM	> 100 µM	> 100 µM	> 100 µM	> 100 µM	> 100 µM	> 100 µM	> 100 µM		> 100 µM									
CCOc1cc(/C=C/C(=O)CC(=O)/C=C/c2ccc(OC(=O)CNCCN(CC)CC)c(OCC)c2)ccc1OC(=O)CNCCN(CC)CC	1.66 µM	2.61 µM	2.97 µM		5.43 µM	20.8 µM	45.4 µM	6.38 µM	10.5 µM	3.1 µM	0.394 µM	1.2 µM	1.4 µM	2.27 µM	1.38 µM	5.39 µM	6.41 µM	2.6 µM	782 nM
Nc1ncnc2c1N=C(c1ccccc1)CC(c1ccccc1)N2 (centres undefined)	> 100 µM	> 100 µM	> 100 µM		> 100 µM	> 100 µM	> 100 µM	> 100 µM	> 100 µM	> 100 µM									
CCOC(=O)[C@@H]1C[C@@H]1c1ccc(O)c(O)c1		32.7 µM	82.2 µM	> 100 µM	> 100 µM	> 100 µM	51.7 µM	> 100 µM	35.2 µM	49.3 µM									
CCOc1cc2c(cc1O)CC[C@@H]1[C@@H]2CC[C@]2(C)[C@@H](O)CC[C@@H]12	11.9 µM	6.63 µM	10.8 µM	23 µM	98.2 µM	77.3 µM			56.4 µM	0.0426 µM									
CC1(CCCCO)C=CC(S(=O)(=O)c2ccccc2)CC1 (centres undefined)	11.2 µM	12.6 µM	8.45 µM	13.2 µM	17.5 µM	22.7 µM		19.1 µM	11.3 µM	20.2 µM									
COc1cccc2c1[C@H]1OC(=O)NC1CCCCC2 (some centres undefined)	> 100 µM	> 100 µM	> 100 µM	> 100 µM	> 100 µM	> 100 µM		> 100 µM		> 100 µM									
CCOP(=O)(/C=C\n1ccc(=O)[nH]c1=O)OCC	> 100 µM	> 100 µM	> 100 µM		> 100 µM	> 100 µM	> 100 µM	> 100 µM	> 100 µM	> 100 µM									
Cc1ccc(C=C(C(=O)O)C(=O)O)o1	> 100 µM	> 100 µM	> 100 µM	> 100 µM	> 100 µM	> 100 µM		> 100 µM	> 100 µM	> 100 µM									
COCCOCCOCCC(=O)NC1CC2CCC1(C)C2(C)C (centres undefined)	> 100 µM	> 100 µM	> 100 µM	> 100 µM	> 100 µM	> 100 µM		> 100 µM	> 100 µM	> 100 µM									
CCCCOc1ccc(S(=O)(=O)/N=C(\N)Nc2ccc(Cl)cc2)cc1		30.3 µM	39.6 µM	31.5 µM	33.2 µM	35 µM	29.1 µM	28.1 µM	26.9 µM	54.9 µM									
CCCCOCCOCCOC1=C(Cl)C(=O)c2c(O)ccc(O)c2C1=O	0.555 µM	1.41 µM	3.6 µM	4.4 µM	5.33 µM	14.8 µM	2.52 µM	2.63 µM		2.84 µM									
